Measured values from patent US20050165015A1, “Vanilloid receptor ligands and their use in treatments” (priority 2004, published 2005).

melting point [°C] | SMILES
197.8 to 197.9 | O=C(Nc1ccc(C(F)(F)F)cc1)c1ccc(-c2ncccc2C(F)(F)F)cc1 [Example 1, N-(4-Trifluoromethyl-phenyl)-4-(3-trifluoromethyl-pyridin-2-yl)-benzamide]
208.6 | O=C(Nc1ccc(C(F)(F)F)cc1)c1ccc(-c2ncccc2Cl)cc1
